Data on 16 compounds can be found in patent US10342796B2, “Acrylanilide derivative, preparation method, and applications thereof in pharmacy” (Ancureall Pharmaceutical (Shanghai) Co., Ltd., priority 2015, dated 2019).

The structures appear in SMILES notation.

Holding throughout (assay): Growth inhibition GI50 in vitro (CCK8/MTT, 72 h)
Common to all, as to type: cell-based, human

Assay [1] concerns N87 (HER2 Amp). The following applies: Homo sapiens; Table 13, 72 h; read-out: Range of GI50 N87 (HER2 Amp).
Assay [2] relates to H1975 (EGFR L858R/T790M). The following applies: Homo sapiens, NCI-H1975; Table 13, 72 h; read-out: Range of GI50 H1975 (EGFR L858R/T790M). As for the experimental part:
(§1) PC-9ER is an acquired Erlotinib resistance cell line of PC-9 cells developed by the investor. […] The four cell lines above were cultured with 1×RPMI1640 complete medium (supplement with 10% FBS). Human colon cancer cell line SW48 (EGFR G719S positive, ATCC). was cultured with L15 complete medium (10% FB S).
(§2) The suspension cells were collected by centrifugation. The supernatant was discard and the cell pellet was resuspended and counted. Different cell concentrations (5˜10×10^4 cells/mL) were prepared according to the growth cycle of each cell line and then seeded on a 96-well plate (Corning), 100 μL/well. The cells were incubated over night at 37° C., 5% CO2. The compounds were added to the cells on the second day with 2 wells in parallel. The final concentration of organic solvent shall not exceed 1%. The cells were continually incubated for 72 h, and then subjected to MTT assay.
(§3) The present compounds and the reference compounds were dissolved with DMSO (Sigma), respectively. […] The storage concentration of compounds was 10 mM and kept at −20° C. They were diluted by 2 times or 10 times with serial dilution before using.
(§4) Dojindo CCK8 reagent kit was used as MTT assay. […] FC meter was used as microplate reader.
(§5) Adherent cell culture medium was discard and immediately replaced with fresh prepared medium which contains 10% CCK8 reagent (100 μL/well). For the suspension cells, CCK8 was directly added to 10% of the final concentration. The cells were continually incubated for 1˜4 h. When the color of control wells turned to dark yellow, the absorption value was measured at OD450 nm. The cell growth rate was calculated according to the following formula: cell growth rate (%)=100*(T−T0)/(C−T0), T=optical density of drug treatment cell well—optical density of blank control well; T0=optical density of cell well before drug treatment—optical density of blank control well; C=optical density of cell well of solvent control group—optical density of blank control well. […] The experiment was independently repeated 1˜3 times, and subject to biological statistical analysis.

Assay [3] deals with PC-9 (EGFR dE746-A750). The following applies: Homo sapiens; Table 13, 72 h; read-out: Range of GI50 PC-9 (EGFR dE746-A750). As for the experimental part: as §1, §2, §3, §4, §5
For assay [4], the system named is A549 (EGFR WT). The following applies: Homo sapiens, A549; Table 13, 72 h; read-out: Range of GI50 A549 (EGFR WT).
Source text: EGFR wild type cell lines: human epidermal cancer cell line A431 (EGFR WT, amplification and high expression, from Shanghai Cell Bank of Chinese Academy of Sciences and ATCC), NSCLC cell lines NCI-H460 (EGFR WT, Kras G61H and PI3KCA E545K mutants, ATCC) and NCI-H1299 (EGFR WT, ATCC), melanoma cell line A375 (EGFR WT and BRAF V600E mutant, from Shanghai Cell Bank of Chinese Academy of Sciences, ATCC), human lung cancer cell line NCI-H292 (EGFR WT, from human lung mucoepidermoid carcinoma/lymphatic metastasis, purchased from Shanghai Cell Bank of Chinese Academy of Sciences) were cultured with 1×RPMI1640 complete medium which was supplement with 10% FBS. NSCLC cell line A549 (EGFR WT and Kras G12S mutant, from Shanghai Cell Bank of Chinese Academy of Sciences) was cultured with 1×Ham'S F12K complete medium which was supplement with 10% FBS, 1% double-antibiotics and 2 mM glutamine.
as §2, §3, §4, §5

As to `C=CC(=O)Nc1cc(Nc2cc(Nc3ccc(OC)c(C#N)c3)ncn2)c(OC)cc1N(C)CCN(C)C` [Compound 255, N-(5-(6-(3-cyano-4-methoxyphenylamino)-pyrimidin-4-yl-amino)-2-((2-dimethylamino-ethyl)-methyl-amino)-4-methoxyl-phenyl)-acrylamide], the GI50 in assay [1] was 0.01 to 0.1 µM; in assay [2], 0.01 to 0.1 µM; in assay [3] it was 0.01 to 0.1 µM; in assay [4], greater than 1 µM.

Take `C=CC(=O)Nc1cc(Nc2cc(Nc3ccc(OCc4nccs4)c(Cl)c3)ncn2)c(OC)cc1N(C)CCN(C)C` [Compound 223, N-(5-(6-(3-chloro-4-(thiazol-2-ylmethoxy)-phenylamino)-pyrimidin-4-ylamino)-2-((2-dimethylamino-ethyl)-methyl-amino)-4-methoxyl-phenyl)-acrylamide]: the GI50 was 0.01 to 0.1 µM in assay [1], 0.01 to 0.1 µM in assay [2], 0.01 to 0.1 µM in assay [3] and greater than 1 µM in assay [4].

With `C=CC(=O)Nc1cc(Nc2cc(Nc3ccc(OCCC(C)C)c(Cl)c3)ncn2)c(OC)cc1N(C)CCN(C)C` [Compound 219, N-(5-(6-(3-chloro-4-(3-methylbutoxy)-phenylamino)-pyrimidin-4-ylamino)-2-((2-dimethylaminoethyl)-methyl-amino)-4-methoxyphenyl)-acrylamide], the GI50 in assay [1] is 0.01 to 0.1 µM; in assay [2], 0.01 to 0.1 µM; in assay [3], less than 0.01 µM; in assay [4], greater than 1 µM.

Consider `C=CC(=O)Nc1cc(Nc2cc(Nc3ccc(C(F)(F)F)c(Cl)c3)ncn2)c(OC)cc1N(C)CCN(C)C` [Compound 234, N-(5-(6-(3-chloro-4-trifluoromethyl-phenylamino)-pyrimidin-4-yl-amino)-2-((2-dimethylamino-ethyl)-methyl-amino)-4-methoxyl-phenyl)-acrylamide], for which the GI50 is 0.01 to 0.1 µM in assay [1], 0.01 to 0.1 µM in assay [2], 0.01 to 0.1 µM in assay [3] and greater than 1 µM in assay [4].

As to `C=CC(=O)Nc1cc(Nc2nccc(-n3ccc4c(OC)cccc43)n2)c(OC)cc1N1CCC(N2CCN(C)CC2)CC1` [Compound 208, N-(5-(4-(4-methoxyl-1H-indol-1-yl)-pyrimidin-2-ylamino)-2-(4-(4-methyl-piperazin-1-yl)-piperidin-1-yl)-4-methoxyl-phenyl)-acrylamide], the GI50 was 0.01 to 0.1 µM in assay [1], 0.1 to 1 µM in assay [2], 0.1 to 1 µM in assay [3] and greater than 1 µM in assay [4].

`C=CC(=O)Nc1cc(Nc2cc(Nc3cc(OC)c(Cl)cc3Cl)ncn2)c(OC)cc1N(C)CC(=O)N1CCN(C)CC1` [Compound 241, N-(5-(6-(2,4-dichloro-5-methoxyl-phenylamino)-pyrimidin-4-yl-amino)-2-(methyl-(2-(4-methyl-piperazin-1-yl)-2-oxoethyl)-amino)-4-methoxyl-phenyl)-acrylamide]: the GI50 in assay [1] was 0.1 to 1 µM; in assay [2], 0.1 to 1 µM; in assay [3], 0.1 to 1 µM; in assay [4], greater than 1 µM.

For `C=CC(=O)Nc1cc(Nc2cc(Nc3ccc(Cl)c(C(F)(F)F)c3)ncn2)c(OC)cc1N(C)CCN(C)C` [Compound 228, N-(5-(6-(4-chloro-3-trifluoromethyl-phenylamino)-pyrimidin-4-yl-amino)-2-((2-dimethylamino-ethyl)-methyl-amino)-4-methoxyl-phenyl)-acrylamide], the GI50 in assay [1] was 0.01 to 0.1 µM; in assay [2], 0.01 to 0.1 µM; in assay [3], less than 0.01 µM; in assay [4] it was greater than 1 µM.

`C=CC(=O)Nc1cc(Nc2cc(Nc3cc(OC)c(Cl)cc3Cl)ncn2)c(OC)cc1OCCN(C)C` [Compound 242, N-(5-(6-(2,4-dichloro-5-methoxyl-phenylamino)-pyrimidin-4-ylamino)-2-(2-dimethylamino-ethoxyl)-4-methoxyl-phenyl)-acrylamide]: the GI50 was less than 0.01 µM in assay [1], less than 0.01 µM in assay [2], less than 0.01 µM in assay [3] and greater than 1 µM in assay [4].

As to `C=CC(=O)Nc1cc(Nc2cc(Nc3cc(OC)c(Cl)cc3Cl)ncn2)c(OC)cc1N1CCC(N2CCOCC2)CC1` [Compound 240, N-(5-(6-(2,4-dichloro-5-methoxyl-phenylamino)-pyrimidin-4-yl-amino)-2-(4-(morpholin-1-yl)-piperidin-1-yl)-4-methoxyl-phenyl)-acrylamide], the GI50 in assay [1] was less than 0.01 µM; in assay [2], 0.01 to 0.1 µM; in assay [3], less than 0.01 µM; in assay [4] it was greater than 1 µM.

On to `C=CC(=O)Nc1cc(Nc2nccc(-n3ccc4c(O)cccc43)n2)c(OC)cc1N(C)CCN(C)C` [Compound 204, N-(5-(4-(4-hydroxyl-1H-indol-1-yl)-pyrimidin-2-ylamino)-2-(2-(dimethylamino-ethyl)-methyl-amino)-4-methoxyl-phenyl)-acrylamide], for which the GI50 in assay [1] is less than 0.01 µM; in assay [2], 0.01 to 0.1 µM; in assay [3], 0.01 to 0.1 µM; in assay [4], greater than 1 µM.

Consider `C=CC(=O)Nc1cc(Nc2cc(Nc3ccc(OC)c(Cl)c3)ncn2)c(OC)cc1N1CCN(C2CCN(C)CC2)CC1` [Compound 227, N-(5-(6-(3-chloro-4-methoxyl-phenylamino)-pyrimidin-4-ylamino)-2-(4-(1-methylpiperidin-4-yl)-piperazin-1-yl)-4-methoxyl-phenyl)-acrylamide], for which the GI50 is 0.01 to 0.1 µM in assay [1], 0.1 to 1 µM in assay [2], less than 0.01 µM in assay [3] and greater than 1 µM in assay [4].

Take `C=CC(=O)Nc1cc(Nc2cc(Nc3cc(OC)c(Cl)cc3Cl)ncn2)c(OC)cc1OCCCN1CCN(C)CC1` [Compound 248]: the GI50 was less than 0.01 µM in assay [1], 0.01 to 0.1 µM in assay [2], less than 0.01 µM in assay [3] and greater than 1 µM in assay [4].

For `C=CC(=O)Nc1cc(Nc2nccc(-n3ccc4c(OCC5CCCO5)cccc43)n2)c(OC)cc1N(C)CCN(C)C` (stereo not shown) [Compound 207, N-(5-(4-(4-((tetrahydrofuran-2-yl)-methoxyl)-1H-indol-1-yl)-pyrimidin-2-ylamino)-2-(2-(dimethylamino-ethyl)-methyl-amino)-4-methoxyl-phenyl)-acrylamide], the GI50 in assay [1] is 0.01 to 0.1 µM; in assay [2], 0.01 to 0.1 µM; in assay [3], 0.01 to 0.1 µM; in assay [4], greater than 1 µM.

Turning to `C=CC(=O)Nc1cc(Nc2cc(Nc3ccc(OC)c(S(=O)(=O)NC)c3)ncn2)c(OC)cc1N(C)CCN(C)C` [Compound 238], the GI50 is 0.1 to 1 µM in assay [1], 0.1 to 1 µM in assay [2], 0.1 to 1 µM in assay [3] and greater than 1 µM in assay [4].

`C=CC(=O)Nc1cc(Nc2cc(N(C)c3cc(OC)c(Cl)cc3Cl)ncn2)c(OC)cc1N(C)CCN(C)C` [Compound 249, N-(5-(6-((2,4-dichloro-5-methoxyl-phenyl)-methyl-amino)-pyrimidin-4-ylamino)-2-((2-dimethylamino-ethyl)-methyl-amino)-4-methoxyl-phenyl)-acrylamide]: the GI50 in assay [1] is less than 0.01 µM; in assay [2], 0.01 to 0.1 µM; in assay [3] it was less than 0.01 µM; in assay [4] it was greater than 1 µM.

As for `C=CC(=O)Nc1cc(Nc2cc(Nc3cc(OC)c(Cl)cc3Cl)ncn2)c(OC)cc1OCCCN1CCCC1` [Compound 245], the GI50 in assay [1] was 0.01 to 0.1 µM; in assay [2], 0.01 to 0.1 µM; in assay [3] it was 0.01 to 0.1 µM; in assay [4] it was greater than 1 µM.
